Data from US11541019B2, “Compositions for use in the treatment of diabetes” (University of Ulster, priority 2015, dated 2023).
Where two headings read alike, the source gives them in different places.

Columns and labels:
[1] = test system: NIH Swiss mice; assay: Acute effects on plasma glucose and insulin after oral glucose load; format: in vivo; details: for circulating (plasma) glucose after glucose load / plasma insulin (insulin release) after glucose load: high fat fed mice, oral 50 μmol/kg with glucose 18 mmol/kg
Method: Adult male (20-22 week) NIH Swiss mice (Harlan UK Ltd) were individually housed in an air-conditioned room at 22±2° C. with 12 hour light: 12 hour darkness cycles. […] Non-fasted NIH Swiss mice (n=6) received an oral injection of glucose alone (18 mmol/kg body weight) or in combination with compositions of the present invention (50 μmol/kg body weight). Blood samples were obtained from the cut tip from tail vein of conscious mice and centrifuged at 13,000 rpm for 3 minutes at 4° C. Plasma glucose was measured by an automated glucose oxidase procedure using a Beckman glucose analyser and insulin determined by radioimmunoassay. All animal experiments were carried out in accordance with the UK Animal (Scientific Procedures) Act 1986.

[2] = test system: BRIN-BD11 cells; assay: LDH release from BRIN-BD11 cells as indicator of cytotoxicity; format: cell-based
Method: (§1) Insulin-secreting BRIN-BD11 cells were cultured with RPMI-1640 media (11.1 mM glucose) containing antibiotics (100 U/ml penicillin and 0.1 mg/ml streptomycin) and 10% foetal calf serum at 37° C. in an atmosphere of 95% air and 5% carbon dioxide. For acute insulin secretion studies, cells were detached using trypsin/EDTA and incubated overnight in 24 well plates with 150,000 cells per well. Cells were then pre-incubated for 40 minutes at 1.1 mmol/l glucose in Krebs buffer (comprising 4.7 mmol/l KCL, 115 mmol/l NaCl, 1.28 mmol/CaCl2, 10 mmol/l NaHCO3, 5 g/l BSA, 1.2 mmol/l KH2PO4, 1.2 mmol/l MgSO47H2O pH 7.4). Test incubations were then performed at 37° C. for 20 minutes. DIM, indole-3-carbinol, embelin, [6]-gingerol, and [6]-shogaol at 10^−12-10^−4 mol/L were tested at both 5.6 mmol/L and 16.7 mmol/L glucose, as indicated in the accompanying drawings. Supernatants were removed, evaluated for lactate dehydrogenase (LDH) release as an indicator of cytotoxicity (as per manufacturer's protocol) or frozen at −20° C. until determination of insulin by radioimmunoassay.

[3] = test system: BRIN-BD11 cells; assay: Acute insulin secretion from clonal BRIN-BD11 cells (radioimmunoassay); format: cell-based; details: for concentrations that enhanced insulin release: tested 10^−12-10^−4 mol/L; for EC50: Rattus norvegicus, BRIN-BD11, 20 min, 20 min incubation, read-out: EC50 of enhanced insulin release
Method: as §1

[4] = test system: high fat fed diabetic NIH Swiss mice; assay: Long-term daily oral administration in high fat fed diabetic mice; format: in vivo; details: for pancreatic insulin content: HFF model; for plasma insulin following oral glucose / plasma glucose following a glucose load: after long-term daily administration; for plasma glucose following a glucose load: glucose 18 mmol/kg; for increase in circulating GLP-1: at 30 min after oral glucose, long term study; for plasma GLP-1: at the end of the study; for insulin sensitivity: insulin 25 U/kg; for body weight: daily oral for 21 days; for non-fasting plasma insulin: after 21 days; for decrease in plasma glucose, area under the curve: over 21 days; for GLP-1 secretion: over the long term study, after oral glucose
Method: […] In order to confirm diabetes, an oral glucose tolerance test (OGTT) was performed. Food intake, fluid intake, body weight, non-fasted plasma glucose and insulin concentrations were monitored every 2- to 4-days as indicated in the accompanying drawings. At the end of the study, glucose tolerance (18 mmol/kg body weight) and insulin sensitivity (25 U/kg body weight) were assessed. Mice were anesthetised by isoflurane and killed by cervical dislocation. Dual energy X-ray absorption (DEXA) scanning was performed after prior calibration and quality control with the aluminium/lucite phantom (0.069 g/cm2, 12.0% fat) using a PIXImus system (software version 1.4x).

[5] = test system: BRIN-BD11 cells; assay: cAMP production in BRIN-BD11 cells (enzyme immunoassay); format: cell-based; details: 11.1 mM glucose, 20 min
Method: (§2) For intracellular Ca2+ measurement, monolayers of BRIN-BD11 cells were seeded overnight at a density of 80,000 cells per well in a 96-well black walled clear bottom plate. Cells were washed with 100 μl of Krebs buffer and incubated for 1 hour with Flex calcium assay kit reagent at 37° C. GPR84 at 10^−4 mol/L were added at 5.6 mmol/L and 16.7 mmol/L glucose. Fluorometric data were obtained using the FLEX Station scanner and test solutions were transferred using fluid transfer workstation at a wavelength of 525 nm (Molecular Devices). For cAMP determination, BRIN-BD11 cells were seeded in a 96-well plate at a density of 30,000 cells per well. Cells were washed with 300 μl Krebs buffer for 40 min and 150 μl of compositions of the present invention at 10^−10-10^−4 mol/L were tested at […] glucose. After 20 minutes, test solutions were removed and 0.1M HCL (150 μL) was added to lyse the cells. Total cAMP production in the cell supernatants were measured using cAMP enzyme immunoassay kit according to the manufacturer's protocol (Sigma, Poole, UK).

[6] = test system: BRIN-BD11 cells; assay: Intracellular Ca2+ in BRIN-BD11 cells (Flex calcium assay kit); format: cell-based; details: 10^−4 mol/L, 16.7 mM glucose
Method: as §2

[7] = 5.6 mM or 16.7 mM glucose, not separated at the place
[8] = high fat fed mice, daily administration

EC50 ([3]; 5.6 mM basal glucose) [nM] | EC50 ([3]; 16.7 mM stimulatory glucose) [nM] | SMILES | cytotoxicity (LDH release) [2, 7] | concentrations that enhanced insulin release ([3]; 5.6 mM glucose) | concentrations that enhanced insulin release ([3]; 16.7 mM glucose) | circulating (plasma) glucose after glucose load [1] | plasma insulin (insulin release) after glucose load [1] | pancreatic insulin content ([4]; daily administration) | plasma insulin following oral glucose ([4]; high fat fed mice) | plasma glucose following a glucose load ([4]; high fat fed mice) | increase in circulating GLP-1 ([4]; high fat fed mice) [%] | plasma GLP-1 ([4]; high fat fed mice) | total body fat (DEXA) [4, 8] | insulin sensitivity [4, 8] | body weight ([4]; high fat fed mice) | non-fasting plasma insulin ([4]; high fat fed mice, daily oral) | decrease in plasma glucose, area under the curve ([4]; high fat fed mice, daily oral) [%] | GLP-1 secretion ([4]; high fat fed mice) | cAMP production / involvement of cAMP pathway [5] | intracellular Ca2+ concentrations [6] | further results
1900 | 2800 | CCCCC[C@H](O)CC(=O)CCc1ccc(O)c(OC)c1 [[6]-gingerol, (5S)-5-hydroxy-1-(4-hydroxy-3-methoxyphenyl)decan-3-one] | No cytotoxicity | 10^−8-10^−4 mol/L | 10^−8-10^−4 mol/L |  |  |  |  |  |  |  |  |  |  |  |  |  |  |  | plasma glucose after glucose load ([1]; NIH Swiss mice, diet not separated (normal chow and high fat), oral with glucose 18 mmol/kg): significant decrease
1500 | 400 | OCc1c[nH]c2ccccc12 [Indole-3-carbinol, 1H-Indol-3-ylmethanol] | No cytotoxicity | 10^−7-10^−4 mol/L | 10^−6-10^−4 mol/L | significantly decreased |  |  |  |  |  |  |  |  |  |  |  |  |  |  | 

The next lines start with the compound.

SMILES | EC50 ([3]; 5.6 mM basal glucose) [nM] | EC50 ([3]; 16.7 mM stimulatory glucose) [nM] | cytotoxicity (LDH release) [2, 7] | concentrations that enhanced insulin release ([3]; 5.6 mM glucose) | concentrations that enhanced insulin release ([3]; 16.7 mM glucose) | circulating (plasma) glucose after glucose load [1] | plasma insulin (insulin release) after glucose load [1] | pancreatic insulin content ([4]; daily administration) | plasma insulin following oral glucose ([4]; high fat fed mice) | plasma glucose following a glucose load ([4]; high fat fed mice) | increase in circulating GLP-1 ([4]; high fat fed mice) [%] | plasma GLP-1 ([4]; high fat fed mice) | total body fat (DEXA) [4, 8] | insulin sensitivity [4, 8] | body weight ([4]; high fat fed mice) | non-fasting plasma insulin ([4]; high fat fed mice, daily oral) | decrease in plasma glucose, area under the curve ([4]; high fat fed mice, daily oral) [%] | GLP-1 secretion ([4]; high fat fed mice) | cAMP production / involvement of cAMP pathway [5] | intracellular Ca2+ concentrations [6] | further results
c1ccc2c(Cc3c[nH]c4ccccc34)c[nH]c2c1 [Diindolylmethane, 3,3′-methanediylbis(1H-indole)] | 130 | 1000 |  | 10^−8-10^−4 mol/L | 10^−9-10^−4 mol/L | decreased circulating glucose | increase in insulin release | reduced pancreatic insulin content | decreased plasma insulin | attenuated | 61 | raised | decreased body fat | decreased | decreased body weight after 15 days | augmented | 18 | increased GLP-1 secretion | involves the cAMP-dependent pathway | increased intracellular Ca2+ concentrations | energy intake ([4]; high fat fed mice, daily oral): decreased energy intake; fluid intake ([4]; high fat fed mice, daily oral): no effect on fluid intake; non-fasting plasma glucose ([4]; high fat fed mice, daily oral, at 21 days): decrease in plasma glucose; cytotoxicity (LDH release) ([2]; 5.6 mM glucose): No cytotoxicity; cytotoxicity (LDH release) ([2]; 16.7 mM glucose): No cytotoxicity
CCCCC/C=C/C(=O)CCc1ccc(O)c(OC)c1 [[6]-shogaol, (E)-1-(4-hydroxy-3-methoxyphenyl)dec-4-en-3-one] |  |  |  |  |  |  |  |  |  |  |  |  |  |  |  |  |  |  | act through the cAMP pathway | increased intracellular Ca2+ concentrations | 
CCCCCCCCCCCC1=C(O)C(=O)C=C(O)C1=O [Embelin, 2,5-dihydroxy-3-undecylcyclohexa-2,5-diene-1,4-dione] | 730 | 210 |  | 10^−9-10^−4 mol/L | 10^−10-10^−4 mol/L | decreased circulating glucose | increase in insulin release | reduced pancreatic insulin content | decreased plasma insulin | significantly decreased | 45 | raised | no change in total body fat | decreased | no effect on body weight | augmented | 17 | increased GLP-1 secretion | involves the cAMP-dependent pathway | increased intracellular Ca2+ concentrations | low-density lipoprotein (LDL) cholesterol [4, 8]: reduced; total cholesterol [4, 8]: reduced; non-fasting plasma glucose ([4]; high fat fed mice, daily oral, after 9 days of treatment): significant decrease in plasma glucose; cytotoxicity (LDH release) ([2]; 5.6 mM glucose): No cytotoxicity; cytotoxicity (LDH release) ([2]; 16.7 mM glucose): No cytotoxicity
